Data: US20160075653A1, “NEMATICIDAL N-(PHENYLCYCLOALKYL)CARBOXAMIDES AND N-(PHENYLCYCLOALKYL)THIOCARBOXAMIDES” (BAYER CROPSCIENCE AKTIENGESELLSCHAFT, priority 2013, published 2016)

experiment: Measurement of log P values by HPLC on reversed phase columns (methods [a] pH 2.3, [b] pH 2.7, [c] pH 7.8); format: physicochemical; settings: HPLC on reversed phase column, method [b], pH 2.7
Method in brief: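 Retention times were converted to log P by linear interpolation between linear alkan-2-one standards (3 to 16 carbons) of known log P. Eluents, each with 10% to 95% acetonitrile gradient: phosphoric acid 0.1% at pH 2.3 [a]; formic acid 0.1% at pH 2.7, LC-MS [b]; ammonium hydrogen carbonate 0.001 molar at pH 7.8, LC-MS [c].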

logP | SMILES
3.34^[b] | O=C(N[C@@H]1CC[C@H]1c1ccccc1C(F)(F)F)c1ncccc1Br (relative stereo) [Example 624]
2.89^[b] | O=C(N[C@@H]1C[C@@H]1c1ccc(Cl)cc1Cl)c1cncnc1C(F)(F)F (relative stereo) [Example 610]
3.84^[b] | O=C(N[C@@H]1CC[C@@H]1c1ccc(Cl)cc1C(F)(F)F)c1ccccc1C(F)(F)F (relative stereo) [Example 704]
2.58^[b] | O=C(N[C@@H]1CC[C@H]1c1ccc(Cl)cc1Cl)c1cccnc1 (relative stereo) [Example 662]
4.20^[b] | O=C(N[C@@H]1CC[C@H]1c1ccc(Cl)cc1C(F)(F)F)c1ccccc1I (relative stereo) [Example 677]
3.52^[b] | O=C(N[C@@H]1CC[C@@H]1c1ccc(Br)cc1C(F)(F)F)c1cccnc1C(F)(F)F (relative stereo) [Example 657]
3.97^[b] | O=C(N[C@@H]1CC[C@H]1c1ccc(Br)cc1C(F)(F)F)c1nccnc1C(F)(F)F (relative stereo) [Example 660]
3.19^[b] | O=C(N[C@@H]1CC[C@@H]1c1ccc(Cl)cc1Cl)c1ccccc1[N+](=O)[O-] (relative stereo) [Example 661]
2.98^[b] | O=C(N[C@@H]1CC[C@H]1c1ccccc1C(F)(F)F)c1nccnc1Cl (relative stereo) [Example 622]
4.28^[b] | O=C(NC1CCC1c1ccc(Cl)cc1C(F)(F)F)c1sccc1I (stereo not drawn) [Example 711]
3.33^[b] | O=C(N[C@@H]1CC[C@H]1c1ccc(Cl)cc1C(F)(F)F)c1cccnc1Cl (relative stereo) [Example 715]
4.33^[b] | O=C(N[C@@H]1CC[C@@H]1c1ccc(Cl)cc1C(F)(F)F)c1ncc(C(F)(F)F)cc1Cl (relative stereo) [Example 667]

same assay, conditions: HPLC on reversed phase column, method [c], pH 7.8

logP | SMILES
3.27^[c]; | O=C(N[C@@H]1CC[C@H]1c1ccccc1C(F)(F)F)c1ncccc1Br (relative stereo) [Example 624]
2.87^[c]; | O=C(N[C@@H]1C[C@@H]1c1ccc(Cl)cc1Cl)c1cncnc1C(F)(F)F (relative stereo) [Example 610]
3.42^[c]; | O=C(N[C@@H]1CC[C@@H]1c1ccc(Br)cc1C(F)(F)F)c1cccnc1C(F)(F)F (relative stereo) [Example 657]
3.87^[c]; | O=C(N[C@@H]1CC[C@H]1c1ccc(Br)cc1C(F)(F)F)c1nccnc1C(F)(F)F (relative stereo) [Example 660]

same assay, conditions: HPLC on reversed phase columns, method [b], pH 2.7

SMILES | logP
N#Cc1ncccc1C(=O)N[C@@H]1CCC[C@H]1c1ccc(F)c(F)c1 (relative stereo) [Example 110] | 3.31^[b]
O=C(NC1CC1c1ccccc1)c1ccccc1C(F)(F)F (stereo not drawn) [Example 40] | 2.79^[b]
Cc1cccnc1C(=O)N[C@@H]1CCC[C@H]1c1ccc(F)c(F)c1 (relative stereo) [Example 103] | 3.33^[b]
Cc1nn(C)c(F)c1C(=O)NC1CC1c1ccccc1 (stereo not drawn) [Example 5] | 2.00^[b]
CC(F)c1nn(C)cc1C(=O)N[C@@H]1CCC[C@@H]1c1ccc(F)c(F)c1 (relative stereo) [Example 53] | 2.62^[b]
CCCc1nn(C)c(F)c1C(=O)N[C@@H]1CCC[C@@H]1c1ccc(F)c(F)c1 (relative stereo) [Example 87] | 3.25^[b]
O=C(N[C@@H]1CCC[C@@H]1c1ccc(F)c(F)c1)c1sccc1I (relative stereo) [Example 101] | 3.79^[b]
O=C(N[C@@H]1C[C@H]1c1ccccc1)c1ccccc1Br (relative stereo) [Example 45] | 2.79^[b]
O=C(N[C@@H]1CCC[C@@H]1c1ccc(F)c(F)c1)c1c(Cl)ccnc1Cl (relative stereo) [Example 120] | 3.02^[b]
Cc1oncc1C(=O)N[C@@H]1CCC[C@@H]1c1ccc(F)c(F)c1 (relative stereo) [Example 112] | 2.73^[b]
O=C(NC1CC1c1ccc(Br)cc1)c1cccnc1Cl (stereo not drawn) [Example 35] | 2.34^[b]
CCOc1nn(C)cc1C(=O)N[C@@H]1CCC[C@@H]1c1ccc(F)c(F)c1 (relative stereo) [Example 54] | 2.78^[b]
COc1ccccc1C(=O)N[C@@H]1CCC[C@@H]1c1ccc(F)c(F)c1 (relative stereo) [Example 75] | 3.39^[b]
Cn1ccc(I)c1C(=O)N[C@@H]1CCC[C@@H]1c1ccc(F)c(F)c1 (relative stereo) [Example 100] | 3.83^[b]
O=C(N[C@@H]1CCC[C@@H]1c1ccc(F)c(F)c1)c1ccccc1I (relative stereo) [Example 58] | 3.31^[b]

More lines, now with the values ahead:

logP | SMILES
3.80^[b] | O=C(NC1CCC1c1ccc(Cl)cc1C(F)(F)F)c1ccccc1Br (stereo not drawn) [Example 723]
3.03^[b] | O=C(NC1CC1(F)c1ccc(Cl)cc1)c1ccccc1C(F)(F)F (stereo not drawn) [Example 755]
2.79^[b] | O=C(NC1CCC1c1c(Cl)cccc1Cl)c1cccnc1Cl (stereo not drawn) [Example 725]

same assay, conditions: HPLC reversed phase, method [b] (pH 2.7)

SMILES | logP
O=C(N[C@@H]1C[C@@H]1c1ccc(Cl)cc1)c1c(F)cccc1F (relative stereo) [Example 268] | 2.64^[b]
O=C(NC1CCCC1c1c(F)cccc1F)c1ccccc1C(F)(F)F (stereo not drawn) [Compound 323] | 3.43^[b]
O=C(NC1CCCC1c1ccccc1Cl)c1ccccc1I (stereo not drawn) [Example 295] | 3.51^[b]
O=C(N[C@@H]1CCC[C@H]1c1ccccc1C(F)(F)F)c1cccnc1C(F)(F)F (relative stereo) [Example 289] | 3.27^[b]
Cn1cc(C(=O)NC2CCCC2c2ccccc2C(F)(F)F)c(C(F)F)n1 (stereo not drawn) [Example 287] | 3.06^[b]
O=C(NC1CC1c1ccc(Cl)cc1)c1ccccc1Cl (stereo not drawn) [Example 275] | 2.77^[b]
O=C(NC1CCCC1c1ccccc1Cl)c1cccnc1Cl (stereo not drawn) [Example 293] | 2.64^[b]
Cc1ccccc1C(=O)NC1CC1c1ccc(Cl)cc1 (stereo not drawn) [Compound 276] | 2.76^[b]

Results, then the molecule that gave them:

logP | SMILES
3.56^[b] | O=C(NC1CCCC1c1ccccc1C(F)(F)F)c1ccccc1Cl (stereo not drawn) [Example 300]
2.06^[b] | O=C(N[C@@H]1C[C@@H]1c1ccc(Cl)cc1Cl)c1cccnc1 (relative stereo) [Example 583]
3.24^[b] | Cc1nc(C)c(C(=O)NC2CCCCC2c2ccccc2Cl)s1 (stereo not drawn) [Example 376]
3.38^[b] | O=C(NC1CCCC1c1ccccc1C(F)(F)F)c1c(F)cccc1F (stereo not drawn) [Example 320]
3.25^[b] | O=C(NC1CCCCC1c1ccccc1Br)c1cccnc1Cl (stereo not drawn) [Example 413]
3.20^[b] | O=C(NC1CCC1c1c(F)cccc1F)c1ccc(Cl)cc1 (stereo not drawn) [Example 444]
2.65^[b] | Cc1nc(C)c(C(=O)NC2CCCC2c2c(F)cccc2F)s1 (stereo not drawn) [Example 312]
4.12^[b] | O=C(NC1CCCCC1c1ccc(C(F)(F)F)cc1)c1ccccc1C(F)(F)F (stereo not drawn) [Example 365]
3.40^[b] | Cc1nc(C(F)(F)F)c(C(=O)N[C@@H]2CC[C@@H]2c2cc(F)ccc2C(F)(F)F)s1 (relative stereo) [Example 569]
3.65^[b] | O=C(N[C@@H]1CC[C@H]1c1ccccc1Cl)c1cccnc1Cl (relative stereo) [Example 533]
4.21^[b] | O=C(N[C@@H]1CCC[C@@H]1c1ccc(C(F)(F)F)cc1)c1sccc1I (relative stereo) [Example 360]
2.95^[b] | O=C(N[C@@H]1CCC[C@@H]1c1ccccc1F)c1c(F)cccc1F (relative stereo) [Example 328]
4.26^[b] | O=C(NC1CCCCC1c1ccc(Cl)cc1Cl)c1c(F)cccc1F (stereo not drawn) [Example 411]
2.85^[b] | O=C(N[C@@H]1C[C@@H]1c1ccc(Cl)cc1Cl)c1cccnc1C(F)(F)F (relative stereo) [Example 565]
3.13^[b] | O=C(NC1CC1c1ccc(Cl)cc1)c1ccccc1Br (stereo not drawn) [Example 423]
3.18^[b] | O=C(NC1CCCC1c1ccccc1Cl)c1c(F)cccc1F (stereo not drawn) [Example 391]
3.84^[b] | O=C(NC1CCCCC1c1ccc(Cl)cc1)c1ccccc1I (stereo not drawn) [Example 372]
3.19^[b] | Cc1nn(C)cc1C(=O)NC1CCCCC1c1ccc(Cl)cc1Cl (stereo not drawn) [Example 416]
3.69^[b] | Cn1cc(C(=O)NC2CCCCCC2c2ccccc2C(F)(F)F)c(C(F)F)n1 (stereo not drawn) [Example 421]

same assay, conditions: HPLC reversed phase, method [c] pH 7.8

SMILES | logP
O=C(N[C@@H]1C[C@@H]1c1ccc(Cl)cc1)c1c(F)cccc1F (relative stereo) [Example 268] | 2.59^[c];
O=C(NC1CC1c1ccc(Cl)cc1)c1ccccc1Cl (stereo not drawn) [Example 275] | 2.71^[c];
Cc1ccccc1C(=O)NC1CC1c1ccc(Cl)cc1 (stereo not drawn) [Compound 276] | 2.70^[c];

Further lines, results first:

logP | SMILES
4.05^[c]; | O=C(NC1CCCCC1c1ccc(C(F)(F)F)cc1)c1ccccc1C(F)(F)F (stereo not drawn) [Example 365]
4.16^[c]; | O=C(N[C@@H]1CCC[C@@H]1c1ccc(C(F)(F)F)cc1)c1sccc1I (relative stereo) [Example 360]
2.90^[c]; | O=C(N[C@@H]1CCC[C@@H]1c1ccccc1F)c1c(F)cccc1F (relative stereo) [Example 328]
3.07^[c]; | O=C(NC1CC1c1ccc(Cl)cc1)c1ccccc1Br (stereo not drawn) [Example 423]

same assay, conditions: HPLC-MS, method letter not given

log P | SMILES
3.26 | Cn1cc(C(=O)NC2CCC2c2ccc(Cl)cc2Cl)c(C(F)F)n1 (single isomer, unassigned) [Preparation Example 2 trans-Isomer, trans-N-[2-(2,4-dichlorophenyl)cyclobutyl]-3-(difluoromethyl)-1-methyl-1H-pyrazole-4-carboxamide]

same assay, conditions: method [b], HPLC reversed phase, pH 2.7

logP | SMILES
4.23^[b] | Cn1cc(C(=O)N(C2CC2)C2CCCC2c2ccc(Cl)cc2Cl)c(C(F)F)n1 (stereo not drawn) [Example 155]
2.75^[b] | Cn1nc(C(F)F)c(C(=O)NC2CC2c2ccc(F)cc2)c1Cl (stereo not drawn) [Example 192]
2.59^[b] | Cn1nc(C(F)F)c(C(=O)NC2CC2c2cccc(F)c2)c1F (stereo not drawn) [Example 187]
3.45^[b] | O=C(N[C@@H]1CC[C@H]1c1ccccc1Cl)c1ccccc1C(F)(F)F (relative stereo) [Example 242]
3.63^[b] | CN(C(=O)c1c(C(F)F)nn(C)c1Cl)C1CCCCC1c1ccccc1 (stereo not drawn) [Example 197]
4.59^[b] | Fc1ccc(C2CCCC2NC(=S)c2sccc2C(F)(F)F)cc1F (stereo not drawn) [Example 149]

same assay, conditions: reversed phase HPLC columns, HPLC-MS, method letter not given; read-out: log P

chromatographic logP | SMILES
2.95 | Cn1cc(C(=O)NC2CCC2c2ccc(Cl)cc2Cl)c(C(F)F)n1 (single isomer, unassigned) [Preparation Example 2 cis-Isomer, cis-N-[2-(2,4-dichlorophenyl)cyclobutyl]-3-(difluoromethyl)-1-methyl-1H-pyrazole-4-carboxamide]

same assay, conditions: reversed phase HPLC columns, pH 2.7, HPLC reversed phase, method [b] (pH 2.7); read-out: logP

chromatographic logP | SMILES
3.61 | O=C(N[C@@H]1CC[C@H]1c1ccccc1C(F)(F)F)c1ccccc1I [Example 497]
3.35 | O=C(N[C@@H]1CC[C@@H]1c1ccccc1Cl)c1ccc(Cl)cc1 [Example 455]
